Measured values: PMC3322284 (Journal of Pharmacological and Toxicological Methods, 2012)
Read-outs that look alike come from different tables or passages of the source. Non-standard residues stand in square brackets, D forms with d. Residues, ends and D or L forms follow the SMILES beside them. *: point of attachment. Sta = CC(C)C[C@H](N)[C@@H](O)CC(=O)O; Isovaleryl = CC(C)CC(=O)*

Tests used:
[1] = biological target: T1, hamster Abcb1a Pgp (Cricetulus griseus, UniProt P21448); assay: biochemical; format: binding
[2] = biological target: T1, hamster Abcb1a Pgp; assay: Fluorosome-trans-pgp
[3] = humans; ref Fenner et al., 2009; cited from earlier work
[4] = biological target: human MDR1 Pgp (Homo sapiens, UniProt P08183); assay: Inhibition of net [3H]digoxin transport in LLC-MDR1 cell monolayers; format: cell-based
[5] = read-out: IC50 Fl-t-pgp, inhibition of S-HR transport, 2 mM ATP, 23°C
[6] = IC50 Fl-t-pgp, inhibition of S-HR transport, 2 mM ATP, 23°C
[7] = IC50,Fl, Table 2, half-maximal concentration for inhibition of transport in Fl-t-pgp

T1 sequence (P21448 whole entry): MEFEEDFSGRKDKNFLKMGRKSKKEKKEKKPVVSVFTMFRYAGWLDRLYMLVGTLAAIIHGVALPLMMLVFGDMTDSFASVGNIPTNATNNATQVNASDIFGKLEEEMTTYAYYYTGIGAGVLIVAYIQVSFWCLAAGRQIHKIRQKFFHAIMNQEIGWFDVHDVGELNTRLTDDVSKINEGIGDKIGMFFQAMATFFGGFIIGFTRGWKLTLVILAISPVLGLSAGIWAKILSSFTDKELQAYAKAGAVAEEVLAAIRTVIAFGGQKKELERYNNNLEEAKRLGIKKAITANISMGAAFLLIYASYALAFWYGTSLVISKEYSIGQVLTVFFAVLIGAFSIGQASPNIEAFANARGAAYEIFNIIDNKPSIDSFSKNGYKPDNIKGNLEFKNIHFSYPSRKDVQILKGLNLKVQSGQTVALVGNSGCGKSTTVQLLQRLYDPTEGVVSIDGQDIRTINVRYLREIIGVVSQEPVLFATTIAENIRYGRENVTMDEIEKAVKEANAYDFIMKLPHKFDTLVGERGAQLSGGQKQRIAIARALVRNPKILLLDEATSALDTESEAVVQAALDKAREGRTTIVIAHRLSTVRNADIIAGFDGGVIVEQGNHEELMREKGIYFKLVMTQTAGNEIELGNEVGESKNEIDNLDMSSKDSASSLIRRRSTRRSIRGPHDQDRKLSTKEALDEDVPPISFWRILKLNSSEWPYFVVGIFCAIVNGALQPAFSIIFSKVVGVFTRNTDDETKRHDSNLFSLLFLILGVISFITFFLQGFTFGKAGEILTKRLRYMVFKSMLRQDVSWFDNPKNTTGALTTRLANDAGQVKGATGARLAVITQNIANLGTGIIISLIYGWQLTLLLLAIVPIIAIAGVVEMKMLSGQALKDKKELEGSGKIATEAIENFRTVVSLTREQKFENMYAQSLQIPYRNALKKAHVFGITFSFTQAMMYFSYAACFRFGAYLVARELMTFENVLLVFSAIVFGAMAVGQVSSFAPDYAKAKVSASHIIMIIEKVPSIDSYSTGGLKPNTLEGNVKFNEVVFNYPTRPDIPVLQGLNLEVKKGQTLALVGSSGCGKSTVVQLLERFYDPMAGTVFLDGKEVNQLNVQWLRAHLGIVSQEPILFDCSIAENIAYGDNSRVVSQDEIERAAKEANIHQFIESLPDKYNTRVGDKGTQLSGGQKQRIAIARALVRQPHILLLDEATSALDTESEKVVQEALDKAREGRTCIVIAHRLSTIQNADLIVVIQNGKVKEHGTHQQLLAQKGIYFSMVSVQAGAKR
Chain of human MDR1 Pgp (P08183 whole entry): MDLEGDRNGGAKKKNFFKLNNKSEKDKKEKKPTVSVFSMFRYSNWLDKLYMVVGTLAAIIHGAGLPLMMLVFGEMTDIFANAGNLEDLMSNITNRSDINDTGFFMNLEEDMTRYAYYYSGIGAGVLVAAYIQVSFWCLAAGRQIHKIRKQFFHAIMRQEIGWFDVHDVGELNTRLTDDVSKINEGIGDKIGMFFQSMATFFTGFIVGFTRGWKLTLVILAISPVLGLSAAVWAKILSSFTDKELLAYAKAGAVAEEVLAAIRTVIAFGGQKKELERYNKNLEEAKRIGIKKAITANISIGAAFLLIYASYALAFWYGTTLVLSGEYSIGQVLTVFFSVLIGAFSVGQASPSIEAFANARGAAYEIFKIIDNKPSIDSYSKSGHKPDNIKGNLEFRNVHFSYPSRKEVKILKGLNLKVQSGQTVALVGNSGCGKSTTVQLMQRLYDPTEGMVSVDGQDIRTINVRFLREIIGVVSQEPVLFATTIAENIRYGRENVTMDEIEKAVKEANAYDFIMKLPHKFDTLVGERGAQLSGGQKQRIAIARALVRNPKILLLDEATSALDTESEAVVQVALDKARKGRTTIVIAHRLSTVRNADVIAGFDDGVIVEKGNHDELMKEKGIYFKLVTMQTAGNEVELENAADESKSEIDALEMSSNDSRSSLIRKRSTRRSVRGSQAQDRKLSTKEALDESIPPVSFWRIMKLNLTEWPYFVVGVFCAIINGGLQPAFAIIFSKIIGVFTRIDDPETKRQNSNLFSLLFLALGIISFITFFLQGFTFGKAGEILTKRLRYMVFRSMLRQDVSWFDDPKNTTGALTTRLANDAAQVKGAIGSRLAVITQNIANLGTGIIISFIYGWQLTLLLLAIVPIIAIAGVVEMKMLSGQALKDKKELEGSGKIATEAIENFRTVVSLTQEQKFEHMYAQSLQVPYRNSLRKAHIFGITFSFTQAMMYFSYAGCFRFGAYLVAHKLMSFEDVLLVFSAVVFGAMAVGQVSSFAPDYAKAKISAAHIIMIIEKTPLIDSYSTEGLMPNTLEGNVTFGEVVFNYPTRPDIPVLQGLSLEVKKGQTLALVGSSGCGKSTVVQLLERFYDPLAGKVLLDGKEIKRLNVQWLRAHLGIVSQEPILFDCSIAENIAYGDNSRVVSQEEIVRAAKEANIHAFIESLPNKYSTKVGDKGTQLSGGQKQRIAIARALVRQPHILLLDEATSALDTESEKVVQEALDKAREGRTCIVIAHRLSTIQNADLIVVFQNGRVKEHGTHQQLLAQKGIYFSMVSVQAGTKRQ

Row | Structure (SMILES) | IC50 [2, 6] [µM] | IC50 [2, 7] [µM] | [I2] estimated gastrointestinal concentration of drug after oral dose [3] [µM] | [I] peak plasma concentration of drug at steady state [3] [µM] | other results
1 | O[C@@H](COc1cccc2ncccc12)CN1CCN([C@@H]2c3ccccc3[C@@H]3[C@H](c4ccccc42)C3(F)F)CC1 [Zosuquidar] |  |  |  |  | Kd ([1]; fluorescence quenching of purified Pgp in 2 mM CHAPS): 0.055 µM; IC50 [2, 5]: 0.59 µM
2 | COc1cc2c(cc1OC)CN(CCc1ccc(NC(=O)c3cccc4c(=O)c5cccc(OC)c5[nH]c34)cc1)CC2 [Elacridar] | 0.1 |  |  |  | Kd [1]: 0.59 µM
3 | C=CCN1CC[C@]23c4c5ccc(O)c4O[C@H]2C(=O)CC[C@@]3(O)[C@H]1C5 [Naloxone] |  |  |  |  | IC50 [2]: 210 µM
4 | CCCCc1oc2ccccc2c1C(=O)c1cc(I)c(OCCN(CC)CC)c(I)c1 [Amiodarone] |  |  | 4693 |  | 
5 | CC(=O)NC(CC(C)C)C(=O)NC(CC(C)C)C(=O)NC(Cc1ccc(O)cc1)C(N)=O (stereo not drawn) [NAc-LLY-amide] (Ac-Leu-Leu-Tyr-NH2; configuration not given here) |  |  |  |  | IC50 [2, 5]: 13 µM
6 | COc1ccc2c3c([nH]c2c1)[C@H](CC(C)C)N1C(=O)[C@H](CCC(=O)OC(C)(C)C)NC(=O)[C@@H]1C3 [Ko143] |  |  |  |  | IC50 [2, 5]: 7.5 µM
7 | COc1cc2c(cc1OC)CN(CCc1ccc(NC(=O)c3cc(OC)c(OC)cc3NC(=O)c3cnc4ccccc4c3)cc1)CC2 [Tariquidar] |  |  |  |  | IC50 [2]: 0.021 µM
8 | COc1ccc([C@@H]2Sc3ccccc3N(CCN(C)C)C(=O)[C@@H]2OC(C)=O)cc1 [Diltiazem] | 24 | 24.2 |  |  | 
9 | C[C@H](CS)C(=O)N1CCC[C@H]1C(=O)O [Captopril] |  |  | 230 | 0.23 | IC50 [4]: > 1000 µM
10 | COC(=O)C1=C(C)NC(C)=C(C(=O)OC(C)C)C1c1cccc2nonc12 (centres unmarked) [Isradipine] | 6.6 | 6.6 | 161.5 | 0.02 | IC50 [4]: 29 µM
11 | C[C@]12CC[C@H](O)C[C@H]1CC[C@@H]1[C@@H]2C[C@@H](O)[C@]2(C)[C@@H](C3=CC(=O)OC3)CC[C@]12O [Digoxigenin] |  |  |  |  | IC50 [2]: 520 µM
12 | C[C@H]1O[C@@H](O[C@H]2[C@@H](O)C[C@H](O[C@H]3[C@@H](O)C[C@H](O[C@H]4CC[C@@]5(C)[C@H](CC[C@@H]6[C@@H]5C[C@@H](O)[C@]5(C)[C@@H](C7=CC(=O)OC7)CC[C@]65O)C4)O[C@@H]3C)O[C@@H]2C)C[C@H](O)[C@@H]1O [Digoxin] | 80 |  |  |  | 
13 | CCc1oc2ccccc2c1C(=O)c1cc(Br)c(O)c(Br)c1 [Benzbromarone] |  |  |  |  | IC50 [2]: 44 µM
14 | COc1ccc2c(c1)c(CC(=O)O)c(C)n2C(=O)c1ccc(Cl)cc1 [Indomethacin] | 51 |  |  |  | 
15 | COc1ccccc1OCCNCC(O)COc1cccc2[nH]c3ccccc3c12 (centres unmarked) [Carvedilol] | 3.8 | 3.8 | 61.5 | 0.13 | IC50 [4]: 32 µM

The next lines start with results.

Row | IC50 [2, 6] [µM] | IC50 [2, 7] [µM] | Structure (SMILES) | [I2] estimated gastrointestinal concentration of drug after oral dose [3] [µM] | [I] peak plasma concentration of drug at steady state [3] [µM] | other results
16 | 0.25 |  | C/C=C/C[C@@H](C)C(=O)[C@H]1C(=O)N[C@@H](C(C)C)C(=O)N(C)CC(=O)N(C)[C@@H](CC(C)C)C(=O)N[C@@H](C(C)C)C(=O)N(C)[C@@H](CC(C)C)C(=O)N[C@@H](C)C(=O)N[C@H](C)C(=O)N(C)[C@@H](CC(C)C)C(=O)N(C)[C@@H](CC(C)C)C(=O)N(C)[C@@H](C(C)C)C(=O)N1C [Valspodar] |  |  | Kd [1]: 0.08 µM
17 | 29 |  | CC(C)CC(=O)N[C@H](C(=O)N[C@H](C(=O)N[C@@H](CC(C)C)[C@@H](O)CC(=O)N[C@@H](C)C(=O)N[C@@H](CC(C)C)[C@@H](O)CC(=O)O)C(C)C)C(C)C [Pepstatin A] (Isovaleryl-VV[Sta]A[Sta]-OH) |  |  | 
18 | 5.8 | 5.8 | CCOC(=O)C1=C(C)NC(C)=C(C(=O)OC)C1c1cccc([N+](=O)[O-])c1 (centres unmarked) [Nitrendipine] | 222.0 | 0.03 | 
19 | 7.1 | 7.1 | COCC(=O)O[C@]1(CCN(C)CCCc2nc3ccccc3[nH]2)CCc2cc(F)ccc2[C@@H]1C(C)C [Mibefradil] | 1211 | 2.42 | 
20 | 0.93 | 0.93 | COC(=O)C1=C(C)NC(C)=C(C(=O)OCCN(C)Cc2ccccc2)C1c1cccc([N+](=O)[O-])c1 (centres unmarked) [Nicardipine] | 248 | 0.18 | Kd [1]: 6.5 µM
21 | 1.2 |  | CC(=O)O[C@H]1C(=O)[C@@]2(C)[C@H]([C@H](OC(=O)c3ccccc3)[C@]3(O)C[C@H](OC(=O)[C@H](O)[C@@H](NC(=O)c4ccccc4)c4ccccc4)C(C)=C1C3(C)C)[C@]1(OC(C)=O)CO[C@@H]1C[C@@H]2O [Paclitaxel] |  |  | Kd [1]: 0.038 µM
22 | 0.59 |  | Cc1c(O)cccc1C(=O)N[C@@H](CSc1ccccc1)[C@H](O)CN1C[C@H]2CCCC[C@H]2C[C@H]1C(=O)NC(C)(C)C [Nelfinavir] |  |  | Kd [1]: 0.98 µM
23 | 0.12 | 0.12 | CCCc1nc2c(C)cc(-c3nc4ccccc4n3C)cc2n1Cc1ccc(-c2ccccc2C(=O)O)cc1 [Telmisartan] | 933 | 1.11 | IC50 [4]: 17 µM
24 | 240 |  | CCCN(CCC)S(=O)(=O)c1ccc(C(=O)O)cc1 [Probenecid] |  |  | 
25 | 64 | 64.1 | COc1ccccc1OCC(O)CN1CCN(CC(=O)Nc2c(C)cccc2C)CC1 (centres unmarked) [Ranolazine] | 9356 | 8.4 | IC50 [4]: 130 µM
26 | 3.7 |  | CC(=O)[C@H]1CC[C@H]2[C@@H]3CCC4=CC(=O)CC[C@]4(C)[C@H]3CC[C@]12C [Progesterone] |  |  | 
27 | 0.31 |  | COC(=O)[C@H]1[C@H]2C[C@@H]3c4[nH]c5cc(OC)ccc5c4CCN3C[C@H]2C[C@@H](OC(=O)c2cc(OC)c(OC)c(OC)c2)[C@@H]1OC [Reserpine] |  |  | Kd [1]: 0.73 µM
28 | 29 | 29 | CN[C@H]1CC[C@@H](c2ccc(Cl)c(Cl)c2)c2ccccc21 [Sertraline] | 2612 | 0.39 | 
29 | 5.2 | 5.2 | Cc1c(C)c2c(c(C)c1O)CCC(C)(COc1ccc(CC3SC(=O)NC3=O)cc1)O2 (centres unmarked) [Troglitazone] | 3264 | 3.62 | IC50 [4]: 12 µM
